The melting point is the temperature, or range, at which the solid turns liquid.

Where a name gives a salt, the structure may show the parent alone.

These results are taken from US6465491B2, “6-phenylpyridyl-2-amine derivatives” (Pfizer Inc., priority 1996, dated 2002).

Consider `Nc1cccc(-c2ccc(CCN3CCN(C(=O)Cc4ccccc4)CC3)cc2)n1`, for which the melting point was in the range of 135 to 137 °C. `COc1ccc(NC(=O)N2CCN(CCc3ccc(-c4cccc(N)n4)cc3)CC2)cc1` [Example 31, 4-{2-[4-(6-Amino-pyridin-2-yl)-phenyl]-ethyl}-piperazine-1-carboxylic acid (4-methoxy-phenyl)-amide] showed a melting point of 182 to 184 °C. In the case of `Nc1cccc(-c2ccc(CCN3CCC(N)(C(=O)NCc4ccccc4)CC3)cc2)n1` (as salt: hydrochloride) [Example 59, 4-Amino-1{-2-[4-(6-amino-pyridin-2-yl)-phenyl]-ethyl}-piperidine-4-carboxylic acid benzylamide], the melting point was > 240 °C (dec.). As to `Nc1cccc(-c2ccc(CCN3CCC(c4ccccc4)C3)cc2)n1` (centres unmarked) (as salt: hydrochloride) [Example 26, 6-{4-[2-(3-Phenyl-pyrrolidin-1-yl)-ethyl]-phenyl}-pyridin-2-ylamine], the melting point is 100 °C (dec.). Regarding `Nc1cccc(-c2ccc(CCN3CC4C(C3)C4NC(=O)Nc3ccccc3)cc2)n1` (centres unmarked) [Example 36, 1-(3-{2-[4-(6-Amino-pyridin-2-yl)-phenyl]-ethyl}-3-aza-bicyclo[3.1.0]hex-6-yl)-3-phenyl-urea], the melting point is 192 to 194 °C. Consider `Nc1cccc(-c2ccc(CCN3C4CCC3CC(NC(=O)Cc3ccc(F)cc3)C4)cc2)n1` (centres unmarked) (as salt: hydrochloride), for which the melting point was 160 °C (dec.). `Nc1cccc(-c2ccc(CCNCCc3ccccc3)cc2)n1` (as salt: hydrochloride) [Example 35, 6-[4-(2-Phenethylamino-ethyl)-phenyl]-pyridin-2-ylamine] registered a melting point of 212 to 215 °C. `Nc1cccc(-c2ccc(CCCNC3CCc4ccccc4C3)cc2)n1` (centres unmarked) (as salt: hydrochloride) [Example 127, 6-{4-[3-(1,2,3,4-Tetrahydro-naphthalen-2-ylamino)-propyl]-phenyl}-pyridin-2-ylamine] displayed a melting point of 120 to 130 °C.

`Nc1cccc(-c2ccc(CCNC3C4CC5CC(C4)CC3C5)cc2)n1` (centres unmarked) (as salt: hydrochloride) [Example 116, 6-{4-[2-(Adamantan-2-ylamino)-ethyl]-phenyl}-pyridin-2-ylamine]: the melting point was 215 to 230 °C (dec.). `CC(C)CN1CCN(CCc2ccc(-c3cccc(N)n3)cc2)CC1` [Example 17, 6-{4-[2-(4-Isobutyl-piperazin-1-yl)-ethyl]-phenyl}-pyridin-2-ylamine] returned a melting point of 85 to 88 °C. Compound `Nc1cccc(-c2ccc(CCN3CCN(C(=O)c4ccco4)CC3)cc2)n1` [Example 7, (4-{2-[4-(6-Amino-pyridin-2-yl)-phenyl]-ethyl}-piperazin-1-yl)-furan-2-yl-methanone] came in with a melting point of 152 to 154 °C. Consider `Nc1cccc(-c2ccc(CCN3CCCC(N)C3)cc2)n1` (centres unmarked) (as salt: hydrochloride) [Example 86, 6-{4-[2-(3-Amino-piperidin-1-yl)-ethyl]-phenyl}-pyridin-2-ylamine], for which the melting point is 150 °C (dec.).

On to `Nc1cccc(-c2ccc(CCN3CCN(CCc4ccc(F)cc4)CC3)cc2)n1` [Example 53, 6-[4-(2-{4-[2-(4-Fluoro-phenyl)-ethyl]-piperazin-1-yl}-ethyl)-phenyl]-pyridin-2-ylamine], for which the melting point lay in the range of 165 to 167 °C. The value for `Nc1cccc(-c2ccc(CCN3CCN(C(=O)Cc4ccc(F)cc4)CC3)cc2)n1` was 143 to 145 °C; that for `Nc1cccc(-c2ccc(CCN3CCN(C(=O)Cc4ccc(Cl)cc4)CC3)cc2)n1` (as salt: hydrochloride) was 205 °C (dec.); that for `Nc1cccc(-c2ccc(CCNC3CC4CCC(C3)N4C(=O)Cc3ccc(F)cc3)cc2)n1` (centres unmarked) (as salt: hydrochloride) was 170 °C (dec.). Turning to `Nc1cccc(-c2ccc(CCN3CCC(NC(=O)Nc4ccccc4)C3)cc2)n1` (centres unmarked) (as salt: hydrochloride) [Example 72, 1-(1-{2-[4-(6-Amino-pyridin-2-yl)-phenyl]-ethyl}-pyrrolidin-3-yl)-3-phenyl-urea], the melting point is 130 °C (dec.). Take `Nc1cccc(-c2ccc(CCNCCCCCc3ccccc3)cc2)n1` [Example 126, 6-{4-[2-(5-Phenyl-pentylamino)-ethyl]-phenyl}-pyridin-2-ylamine]: the melting point lay in the range of 60 to 70 °C. Consider `Nc1cccc(-c2ccc(CCNC3Cc4ccccc4C3)cc2)n1` (as salt: hydrochloride) [Example 117, 6-{4-[2-(Indan-2-ylamino)-ethyl]-phenyl}-pyridin-2-ylamine], for which the melting point was 60 to 70 °C (dec.). Regarding `Nc1cccc(-c2ccc(CCNC3CCN(C(=O)Nc4ccccc4)C3)cc2)n1` (centres unmarked) (as salt: hydrochloride) [Example 80, 3-{2-[4-(6-Amino-pyridin-2-yl)-phenyl]-ethylamino}-pyrrolidine-1-carboxylic acid phenylamide], the melting point is 130 °C (dec.). Regarding `CN(Cc1ccc(-c2cccc(N)n2)cc1)C1CCCCC1` (as salt: hydrochloride) [Example 136, 6-{4-[(Cyclohexyl-methyl-amino)-methyl]-phenyl}-pyridin-2-ylamine], the melting point was more than 250 °C. Turning to `Nc1cccc(-c2ccc(CCNC3CC4COCC(C3)N4)cc2)n1` (centres unmarked) (as salt: hydrochloride) [107], the melting point was 170 °C (dec.).

With `Nc1cccc(-c2ccc(CCN3C4CCC3CC(NC(=O)c3ccccc3)C4)cc2)n1` (centres unmarked) (as salt: hydrochloride), the melting point is 211 °C (dec.). In the case of `Nc1cccc(-c2ccc(CCN3CCN(C(c4ccccc4)c4ccccc4)CC3)cc2)n1` (as salt: hydrochloride) [Example 89, 6-{4-[2-(4-Benzhydryl-piperazin-1-yl)-ethyl]-phenyl}-pyridin-2-ylamine], the melting point was 170 °C (dec.). On to `Cl.Nc1cccc(-c2ccc(CCN3CC4C(C3)C4NCCCc3ccccc3)cc2)n1` (centres unmarked), for which the melting point lay within 160 to 163 °C. To `Nc1cccc(-c2ccc(CCN3CCN(CCc4ccccc4)CC3)cc2)n1` [Example 1, 6-{4-[2-(4-Phenethyl-piperazin-1-yl)-ethyl]-phenyl}-pyridin-2-ylamine] belongs 111 to 113 °C; to `Nc1cccc(-c2ccc(CCN3CCC(NC(=O)Cc4ccc(F)cc4)C3)cc2)n1` (centres unmarked) [Example 56, N-(1-{2-[4-(6-Amino-pyridin-2-yl)-phenyl]-ethyl}-pyrrolidin-3-yl)-2-(4-fluoro-phenyl)-acetamide], 90 °C (dec.); to `Nc1cccc(-c2ccc(CCN3CCN(C(=O)COc4ccccc4)CC3)cc2)n1`, 127 to 130 °C. The value for `NC(=O)CNC1C2CN(CCc3ccc(-c4cccc(N)n4)cc3)CC21` (centres unmarked) [Example 52, 2-(3-{2-[4-(6-Amino-pyridin-2-yl)-phenyl]-ethyl}-3-aza-bicyclo[3.1.0]hex-6-ylamino)-acetamide] was 140 °C (dec.). The value for `Nc1cccc(-c2ccc(CCN3CCN(C(=O)C4CCCC4)CC3)cc2)n1` [Example 13, (4-{2-[4-(6-Amino-pyridin-2-yl)-phenyl]-ethyl}-piperazin-1-yl)-cyclopentyl-methanone] was 185 to 187 °C; that for `Nc1cccc(-c2ccc(CCNC3CC4CCC(C3)N4Cc3ccccc3)cc2)n1` (centres unmarked) (as salt: hydrochloride) was 260 °C (dec.); that for `Nc1cccc(-c2ccc(CCNC3CCc4ccccc4C3)cc2)n1` (centres unmarked) (as salt: hydrochloride) [Example 18, 6-{4-[2-(1,2,3,4-Tetrahydro-naphthalen-2-ylamino)-ethyl]-phenyl}-pyridin-2-ylamine] was 320 to 322 °C.

In the case of `Nc1cccc(-c2ccc(CCN3CCC4(CC3)NC(=O)N(CCc3ccccc3)C4=O)cc2)n1` (as salt: hydrochloride) [Example 57, 8-{2-[4-(6-Amino-pyridin-2-yl)-phenyl]-ethyl}-3-phenethyl-1,3,8-triaza-spiro[4.5]decane-2,4-dione], the melting point fell in the range of 176 to 180 °C. With `Nc1cccc(-c2ccc(CCN3CCN(CC(O)c4ccccc4)CC3)cc2)n1` (centres unmarked) (as salt: hydrochloride) [Example 103, 2-(4-{2-[4-(6-Amino-pyridin-2-yl)-phenyl]-ethyl}-piperazin-1-yl)-1-phenyl-ethanol], the melting point was 235 °C (dec.). The value for `Nc1cccc(-c2cccc(CCN3CCN(CCc4ccccc4)CC3)c2)n1` (as salt: hydrochloride) [Example 130, 6-{3-[2-(4-Phenethyl-piperazin-1-yl)-ethyl]-phenyl}-pyridin-2-ylamine] was 120 °C (dec.); that for `CN1CC2CC1CN2CCc1ccc(-c2cccc(N)n2)cc1` (centres unmarked) (as salt: hydrochloride) was 132 °C (dec.); that for `Cc1cccc(NC(=O)N2CCN(CCc3ccc(-c4cccc(N)n4)cc3)CC2)c1` [Example 45, 4-{2-[4-(6-Amino-pyridin-2-yl)-phenyl]-ethyl}-piperazine-1-carboxylic acid m-tolyl-amide] was 88 to 94 °C.

The compound `Nc1cccc(-c2ccc(CCN3CCN(c4nc(-c5ccccc5)cs4)CC3)cc2)n1` [Example 15, 6-(4-{2-[4-(4-Phenyl-thiazol-2-yl)-piperazin-1-yl]-ethyl}-phenyl)-pyridin-2-ylamine] returned a melting point of 158 to 161 °C. Consider `Nc1cccc(-c2ccc(CCN3Cc4ccccc4C3)cc2)n1` [Example 22, 6-{4-[2-(1,3-Dihydro-isoindol-2-yl)-ethyl]-phenyl}-pyridin-2-ylamine], for which the melting point was 140 to 143 °C. With `Nc1cccc(-c2ccc(CCN3CCC(C(c4ccccc4)c4ccccc4)CC3)cc2)n1` (as salt: hydrochloride) [Example 90, 6-{4-[2-(4-Benzhydryl-piperidin-1-yl)-ethyl]-phenyl}-pyridin-2-ylamine], the melting point was 175 °C (dec.). To `Nc1cccc(-c2ccc(CCCN3CCN(CCc4ccccc4)CC3)cc2)n1` (as salt: hydrochloride) [Example 129, 6-{4-[3-(4-Phenethyl-piperazin-1-yl)-propyl]-phenyl}-pyridin-2-ylamine] belongs 125 to 140 °C.
